Substitutions are numbered along the chain they refer to. Like-named read-outs stand apart in the source and are kept apart here.
Assays:
[1] = target: T1, ATAD2A (Homo sapiens, UniProt Q6PL18); experiment: BromoScan selectivity panel (Kd); assay type: binding
T1 sequence (Q6PL18 981-1108 limits assumed): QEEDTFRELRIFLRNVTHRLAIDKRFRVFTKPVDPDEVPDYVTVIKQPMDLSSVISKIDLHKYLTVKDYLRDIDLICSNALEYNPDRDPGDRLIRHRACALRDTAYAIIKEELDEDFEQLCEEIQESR

[2] = target: T2, BRD3(1) (Homo sapiens, UniProt Q15059); experiment: BromoScan selectivity panel (Kd); assay type: binding
T2 construct: the bromodomain-containing protein is BRD3(1)
T2 sequence (Q15059 34-140 limits assumed): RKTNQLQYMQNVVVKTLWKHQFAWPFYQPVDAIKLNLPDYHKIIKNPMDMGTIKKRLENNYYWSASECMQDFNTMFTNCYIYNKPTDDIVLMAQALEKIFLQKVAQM

[3] = target: T3, TAF1L(2) (Homo sapiens, UniProt Q8IZX4); experiment: BromoScan selectivity panel (Kd); assay type: binding
T3 construct: TAF1L(2)
T3 sequence (Q8IZX4 1517-1626 limits assumed): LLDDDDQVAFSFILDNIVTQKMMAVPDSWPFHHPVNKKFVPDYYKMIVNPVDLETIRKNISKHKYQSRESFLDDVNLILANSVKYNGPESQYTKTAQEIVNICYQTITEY

[4] = target: T4, BRD9 (Homo sapiens, UniProt Q9H8M2); experiment: BromoScan selectivity panel (Kd); assay type: binding
T4 sequence (Q9H8M2 130-250 limits assumed): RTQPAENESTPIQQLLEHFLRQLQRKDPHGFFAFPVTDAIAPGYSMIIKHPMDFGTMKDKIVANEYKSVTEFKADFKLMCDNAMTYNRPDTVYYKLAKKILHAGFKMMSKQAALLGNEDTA

[5] = target: T5, BRDT(1) (Homo sapiens, UniProt Q58F21); experiment: BromoScan selectivity panel (Kd); assay type: binding
T5 construct: the bromodomain-containing protein is BRDT(1)

[6] = target: T6, BRD3(2) (Homo sapiens, UniProt Q15059); experiment: BromoScan selectivity panel (Kd); assay type: binding
T6 construct: the bromodomain-containing protein is BRD3(2)
T6 sequence (Q15059 306-415 limits assumed): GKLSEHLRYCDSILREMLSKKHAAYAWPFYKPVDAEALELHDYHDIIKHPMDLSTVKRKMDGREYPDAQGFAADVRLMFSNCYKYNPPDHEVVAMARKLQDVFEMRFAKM

[7] = target: T7, BRD4(1) (Homo sapiens, UniProt O60885); experiment: BromoScan selectivity panel (Kd); assay type: binding
T7 construct: the bromodomain-containing protein is BRD4(1)

[8] = target: T8, BRD4(2) (Homo sapiens, UniProt O60885); experiment: BromoScan selectivity panel (Kd); assay type: binding
T8 construct: the bromodomain-containing protein is BRD4(2)

[9] = target: T9, EP300 (Homo sapiens, UniProt Q09472); experiment: BromoScan selectivity panel (Kd); assay type: binding
T9 sequence (Q09472 1040-1161 limits assumed): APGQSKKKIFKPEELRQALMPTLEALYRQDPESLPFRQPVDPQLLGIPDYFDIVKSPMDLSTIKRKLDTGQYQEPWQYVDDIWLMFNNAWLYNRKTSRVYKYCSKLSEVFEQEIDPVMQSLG

[10] = target: T10, BAZ2A (Homo sapiens, UniProt Q9UIF9); experiment: BromoScan selectivity panel (Kd); assay type: binding
T10 sequence (Q9UIF9 1796-1899 limits assumed): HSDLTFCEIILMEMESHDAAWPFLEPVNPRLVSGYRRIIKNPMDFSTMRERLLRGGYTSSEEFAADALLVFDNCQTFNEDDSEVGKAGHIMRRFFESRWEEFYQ

[11] = target: T11, BRD1 (Homo sapiens, UniProt O95696); experiment: BromoScan selectivity panel (Kd); assay type: binding
T11 sequence (O95696 556-688 limits assumed): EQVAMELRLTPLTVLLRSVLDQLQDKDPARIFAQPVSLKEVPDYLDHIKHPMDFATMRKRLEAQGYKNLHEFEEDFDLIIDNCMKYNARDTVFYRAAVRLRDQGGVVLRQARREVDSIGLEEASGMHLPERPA

[12] = target: T12, TAF1(2) (Homo sapiens, UniProt P21675); experiment: BromoScan selectivity panel (Kd); assay type: binding
T12 construct: TAF1(2)
T12 sequence (P21675 1519-1628 limits assumed): T3 sequence (Q8IZX4 1517-1626 limits assumed) with M46V, V51M, I102V, I107L

[13] = target: T13, TRIM24(PHD Bromo.) (Homo sapiens, UniProt O15164); experiment: BromoScan selectivity panel (Kd); assay type: binding
T13 construct: TRIM24(PHD Bromo.)
T13 sequence (O15164 824-1006 limits assumed): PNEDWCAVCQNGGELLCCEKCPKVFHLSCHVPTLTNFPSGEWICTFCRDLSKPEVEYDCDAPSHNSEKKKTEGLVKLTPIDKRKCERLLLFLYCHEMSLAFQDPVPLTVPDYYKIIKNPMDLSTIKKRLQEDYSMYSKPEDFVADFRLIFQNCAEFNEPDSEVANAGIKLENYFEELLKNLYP

[14] = system: BRD4-dependent Nut-Midline Carcinoma line 797; experiment: Cell viability (ATPlite) in BRD4 dependant cell line 797; conditions: for EC50: Homo sapiens
[15] = target: CBP (Homo sapiens, UniProt Q92793); experiment: BromoScan selectivity panel (Kd)
CBP, sequence (Q92793 1081-1197 limits assumed): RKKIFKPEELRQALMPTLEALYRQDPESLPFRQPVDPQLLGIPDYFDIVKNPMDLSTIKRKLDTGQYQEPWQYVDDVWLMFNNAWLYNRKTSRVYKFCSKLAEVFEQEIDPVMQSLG

[16] = target: T14, ATAD2B (Homo sapiens, UniProt Q9ULI0); experiment: BromoScan selectivity panel (Kd); assay type: binding
T14 sequence (Q9ULI0 953-1085 limits assumed): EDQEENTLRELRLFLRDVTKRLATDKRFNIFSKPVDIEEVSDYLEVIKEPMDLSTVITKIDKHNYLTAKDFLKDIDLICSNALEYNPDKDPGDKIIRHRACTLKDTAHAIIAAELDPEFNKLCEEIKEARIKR

Cc1noc(C)c1-c1ccc(-c2nc3cnccn3c2NC(C)(C)C)cc1 [UMB32, N-(tert-butyl)-2-(4-(3,5-dimethylisoxazol-4-yl)phenyl)imidazo[1,2-a]pyrazin-3-amine]
Kd ([1]; Table 8, read-out: Kd (nM) ATAD2A): ≥ 40000 nM | Kd ([1]; Table 9, read-out: BromoScan Kd, nM ATAD2A): ≥ 40000 nM | Kd ([2]; Table 8, read-out: Kd (nM) BRD3(1)): 35 nM | Kd ([2]; Table 9, read-out: BromoScan Kd, nM BRD3(1)): 35 nM | Kd ([3]; Table 8, read-out: Kd (nM) TAF1L(2)): 1300 nM | Kd ([3]; Table 9, read-out: BromoScan Kd, nM TAF1L(2)): 1300 nM | Kd ([4]; Table 8, read-out: Kd (nM) BRD9): ≥ 40000 nM | Kd ([4]; Table 9, read-out: BromoScan Kd, nM BRD9): ≥ 40000 nM | Kd ([5]; Table 8, read-out: Kd (nM) BRDT(1)): 110 nM | Kd ([5]; Table 9, read-out: BromoScan Kd, nM BRDT(1)): 110 nM | Kd ([6]; Table 8, read-out: Kd (nM) BRD3(2)): 38 nM | Kd ([6]; Table 9, read-out: BromoScan Kd, nM BRD3(2)): 38 nM | Kd ([7]; Table 8, read-out: Kd (nM) BRD4(1)): 80 nM | Kd ([7]; Table 9, read-out: BromoScan Kd, nM BRD4(1)): 80 nM | Kd ([8]; Table 8, read-out: Kd (nM) BRD4(2)): 31 nM | Kd ([8]; Table 9, read-out: BromoScan Kd, nM BRD4(2)): 31 nM | Kd ([9]; Table 8, read-out: Kd (nM) EP300): 4500 nM | Kd ([9]; Table 9, read-out: BromoScan Kd, nM EP300): 4500 nM | Kd ([10]; Table 8, read-out: Kd (nM) BAZ2A): ≥ 40000 nM | Kd ([10]; Table 9, read-out: BromoScan Kd, nM BAZ2A): ≥ 40000 nM | Kd ([11]; Table 8, read-out: Kd (nM) BRD1): ≥ 40000 nM | Kd ([11]; Table 9, read-out: BromoScan Kd, nM BRD1): ≥ 40000 nM | Kd ([12]; Table 8, read-out: Kd (nM) TAF1(2)): 560 nM | Kd ([12]; Table 9, read-out: BromoScan Kd, nM TAF1(2)): 560 nM | Kd ([13]; Table 8, read-out: Kd (nM) TRIM24(PHD Bromo.)): ≥ 40000 nM | Kd ([13]; Table 9, read-out: BromoScan Kd, nM TRIM24(PHD, Bromo.)): ≥ 40000 nM | EC50 [14]: 1.13 µM | EC50 ([14]; read-out: 797--EC50 (μM)): 0.724 µM | EC50 ([14]; read-out: BRD4 EC50 (μM)): 1.1 µM | cellular activity in the BRD4 dependant cell line ([14]; text b618, b620): shows cellular activity in the BRD4 dependant cell line | Kd ([15]; read-out: BromoScan Kd, nM CREBBP, Table 9): 4500 nM | Kd ([15]; read-out: Kd (nM) CBP, Table 8): 4500 nM | Kd ([16]; Table 8, read-out: Kd (nM) ATAD2B): ≥ 40000 nM | Kd ([16]; Table 9, read-out: BromoScan Kd, nM ATAD2B): ≥ 40000 nM
